For 32 compounds, EC50 results are on record in patent US10329289B2, “6,7-dihydro-5H-pyrrolo[3,4-B]pyridin-5-one allosteric modulators of the M4 muscarinic acetylcholine receptor” (Merck Sharp & Dohme Corp., priority 2015, dated 2019).

The target in the assay is T1, human M4 muscarinic acetylcholine receptor (Homo sapiens, UniProt P08173).
T1 construct: expressed in transfected cells; host or cells: CHO-K1
T1 sequence (P08173 1-479): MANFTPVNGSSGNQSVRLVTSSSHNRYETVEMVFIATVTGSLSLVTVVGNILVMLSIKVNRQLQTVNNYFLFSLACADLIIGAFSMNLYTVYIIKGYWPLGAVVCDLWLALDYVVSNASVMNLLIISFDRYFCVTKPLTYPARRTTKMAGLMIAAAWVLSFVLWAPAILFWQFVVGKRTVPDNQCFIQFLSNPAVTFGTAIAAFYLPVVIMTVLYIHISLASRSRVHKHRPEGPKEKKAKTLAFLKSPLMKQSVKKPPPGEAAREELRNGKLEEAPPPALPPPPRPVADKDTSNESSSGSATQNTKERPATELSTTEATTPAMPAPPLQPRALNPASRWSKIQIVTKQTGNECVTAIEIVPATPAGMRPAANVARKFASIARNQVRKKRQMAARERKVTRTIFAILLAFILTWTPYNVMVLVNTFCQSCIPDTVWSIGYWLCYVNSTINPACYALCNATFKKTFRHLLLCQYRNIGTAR
Briefly: human FLIPR-based M4 PAM assay (Ca2+ mobilization, CHO-K1 cells with human M4 receptor and Gαqi5). Format: cell-based. Conditions: acetylcholine at 20% of maximum response, read-out: M4 PAM IP. The essentials:
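Calcium-mobilization (FLIPR) readout in dye-loaded CHO-K1 cells co-expressing human M4 receptor and Gαqi5. Potentiation measured against acetylcholine at a concentration giving 20% of maximal response, with an optional 70% addition; the reported value is the curve inflection point from a 4-parameter logistic fit.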
Regarding `COC(=O)c1cncc(OC2CCN(c3nc4c(cc3C)C(=O)NC4)CC2)c1` [Example 111, methyl 5-((1-(3-methyl-5-oxo-6,7-dihydro-5H-pyrrolo[3,4-b]pyridin-2-yl)piperidin-4-yl)oxy)nicotinate], the EC50 was 4360 nM. To `Cc1cc2c(nc1N1CCC(OCC(F)(F)F)CC1)CNC2=O` [Example 172A, 3-methyl-2-(4-(2,2,2-trifluoroethoxy)piperidin-1-yl)-6,7-dihydro-5H-pyrrolo[3,4-b]pyridin-5-one] belongs 905 nM; to `Cc1cc2c(nc1N1CCC(Oc3ccc(OC(F)(F)F)nc3)CC1)CNC2=O` [Example 124, 3-methyl-2-(4-((6-(trifluoromethoxy)pyri-din-3-yl)oxy)piperidin-1-yl)-6,7-dihydro-5H-pyrrolo[3,4-b]pyridin-5-one], 362 nM; to `Cc1cncc(OC2CCN(c3nc4c(cc3C)C(=O)N(C)[C@H]4CO)CC2)c1` [Example 344, (R)-7-(hydroxymethyl)-3,6-dimethyl-2-(4-((5-methylpyridin-3-yl)oxy)piperidin-1-yl)-6,7-dihydro-5H-pyrrolo[3,4-b]pyridin-5-one], 1220 nM.

In the case of `COc1ccc(OC2CCN(c3nc4c(cc3C)C(=O)N(C)[C@@]4(C)CO)CC2)cn1` (single isomer, unassigned) [Example 287A], the EC50 was found to be 3870 nM. To `Cc1cc2c(nc1N1CCC(Oc3ccc([C@@H](C)O)cc3)CC1)CNC2=O` (single isomer, unassigned) [Example 150A] belongs 124 nM. To `CCN1Cc2nc(N3CC[C@@H](Oc4ccccc4)[C@@H](F)C3)c(C)cc2C1=O` [Example 244, 6-ethyl-2-((3S,4R)-3-fluoro-4-phenoxypiperidin-1-yl)-3-methyl-6,7-dihydro-5H-pyrrolo[3,4-b]pyridin-5-one] belongs 32 nM.

For `Cc1cc2c(nc1N1CC[C@@H](Oc3ccc4c(cnn4C)c3)[C@H](F)C1)CN(CCO)C2=O` [Example 241A, 2-((3R,4R)-3-fluoro-4-((1-methyl-1H-indazol-5-yl)oxy)piperidin-1-yl)-6-(2-hydroxyethyl)-3-methyl-6,7-dihydro-5H-pyrrolo[3,4-b]pyridin-5-one], the EC50 was 93 nM. As for `Cc1cc2c(nc1N1CC[C@@H](Oc3cccc(C#N)c3)[C@@H](F)C1)CNC2=O` (relative stereo) [Example 7, 3-((cis-3-fluoro-1-(3-methyl-5-oxo-6,7-dihydro-5H-pyrrolo[3,4-b]pyridin-2-yl)piperidin-4-yl)oxy)benzonitrile], the figure is 30 nM; as for `COCc1ccc(OC2CCN(c3nc4c(cc3C)C(=O)NC4)CC2)cn1` [Example 203, 2-(4-((6-(methoxymethyl)pyridin-3-yl)oxy)piperidin-1-yl)-3-methyl-6,7-dihydro-5H-pyrrolo[3,4-b]pyridin-5-one], 531 nM; as for `Cc1c(N2CCC(Oc3ccc4c(cnn4C)c3)CC2)nc2c(c1C)C(=O)N(CCO)C2` [Example 265D, 6-(2-hydroxyethyl)-3,4-dimethyl-2-(4-((1-methyl-1H-indazol-5-yl)oxy)piperidin-1-yl)-6,7-dihydro-5H-pyrrolo[3,4-b]pyridin-5-one], 65 nM.

As for `COc1cccc(OC2CCN(c3nc4c(cc3C)C(=O)NC4)CC2)c1` [Example 51, 2-(4-(3-methoxyphenoxy)piperidin-1-yl)-3-methyl-6,7-dihydro-5H-pyrrolo[3,4-b]pyridin-5-one], the EC50 worked out at 51 nM. As for `Cc1cc2c(nc1N1CCC(Oc3ccc4c(c3)COCC4)CC1)[C@@H](CO)N(C)C2=O` [Example 349, (S)-7-(hydroxymethyl)-2-(4-(isochroman-7-yloxy)piperidin-1-yl)-3,6-dimethyl-6,7-dihydro-5H-pyrrolo[3,4-b]pyridin-5-one], the figure is 22 nM.

`Cc1cc2c(nc1N1CCC(Oc3ccc(OCCN(C)C)nc3)CC1)CNC2=O` [Example 168, 2-(4-((6-(2-(dimethylamino)ethoxy)pyridin-3-yl)oxy)piperidin-1-yl)-3-methyl-6,7-dihydro-5H-pyrrolo[3,4-b]pyridin-5-one]: the EC50 was 119 nM. With `Cc1cc2c(nc1N1CCC(Oc3ccc(NCCO)nc3)CC1)CNC2=O` [Example 324E, 2-(4-((6-((2-Hydroxyethyl)amino)pyridin-3-yl)oxy)piperidin-1-yl)-3-methyl-6,7-dihydro-5H-pyrrolo[3,4-b]pyridin-5-one], the EC50 was determined as 420 nM. As for `Cc1cc2c(nc1N1CCC(Oc3cccc(C#N)c3)CC1)[C@H](CO)N(C)C2=O` [Example 346, (R)-3-((1-(7-(hydroxymethyl)-3,6-dimethyl-5-oxo-6,7-dihydro-5H-pyrrolo[3,4-b]pyridin-2-yl)piperidin-4-yl)oxy)benzonitrile], the figure is 3080 nM; as for `Cc1cc2c(nc1N1CCC(Oc3cccc(C#N)c3)CC1)CN(CCO)C2=O` [Example 239, 3-((1-(6-(2-hydroxyethyl)-3-methyl-5-oxo-6,7-dihydro-5H-pyrrolo[3,4-b]pyridin-2-yl)piperidin-4-yl)oxy)benzonitrile], 36 nM; as for `Cc1cc2c(nc1N1CCC(Oc3ccc4c(c3)C(=O)N(C)C4)CC1)CNC2=O` [Example 67, 3-methyl-2-(4-((2-methyl-3-oxoisoindolin-5-yl)oxy)piperidin-1-yl)-6,7-dihydro-5H-pyrrolo[3,4-b]pyridin-5-one], 136 nM. On to `Cc1cc2c(nc1N1CCC(Oc3ccc4c(c3)COC4(C)C)CC1)CNC2=O` [Example 126, 2-(4-((1,1-dimethyl-1,3-dihydro-2-benzofuran-5-yl)oxy)piperidin-1-yl)-3-methyl-6,7-dihydro-5H-pyrrolo[3,4-b]pyridin-5-one], for which the EC50 amounted to 216 nM. As for `Cc1cc2c(nc1N1CCC(Oc3ccc4c(c3)CC(=O)C4)CC1)CNC2=O` [Example 373, 3-Methyl-2-(4-((2-oxo-2,3-dihydro-1H-inden-5-yl)oxy)piperidin-1-yl)-6,7-dihydro-5H-pyrrolo[3,4-b]pyridin-5-one], the figure is 69 nM; as for `Cc1cc2c(nc1N1CC[C@H](Oc3cccnc3)[C@H](F)C1)CNC2=O` (single isomer, unassigned) [Example 165, 2-((3R,4S) or (3S,4R)-3-fluoro-4-(pyridin-3-yloxy)piperidin-1-yl)-3-methyl-6,7-dihydro-5H-pyrrolo[3,4-b]pyridin-5-one], 467 nM. As for `Cc1cc2c(nc1N1CCC(OCC3(C)CC3C#N)CC1)CNC2=O` (single isomer, unassigned) [Example 193A], the figure is 312 nM.

Turning to `Cc1cc2c(nc1N1CCC(OCc3cnn(C)c3)CC1)CNC2=O` [Example 190A, 3-methyl-2-(4-((1-methyl-1H-pyrazol-4-yl)methoxy)piperidin-1-yl)-6,7-dihydro-5H-pyrrolo[3,4-b]pyridin-5-one], the EC50 turned out to be 820 nM. To `Cc1cc2c(nc1N1CCC(Oc3ccc4[nH]nc(C#N)c4c3)CC1)CNC2=O` [Example 316, 5-((1-(3-Methyl-5-oxo-6,7-dihydro-5H-pyrrolo[3,4-b]pyridin-2-yl)piperidin-4-yl)oxy)-1H-indazole-3-carbonitrile] belongs 198 nM; to `Cc1cc2c(nc1N1[C@@H]3CC[C@H]1C[C@@H](Oc1cccc(C#N)c1)C3)CNC2=O` [Example 95, 3-((endo-8-(3-methyl-5-oxo-6,7-dihydro-5H-pyrrolo[3,4-b]pyridin-2-yl)-8-azabicyclo[3.2.1]octan-3-yl)oxy)benzonitrile], 616 nM. As for `Cc1cc2c(nc1N1CCC(OCC3(C)CC3C#N)CC1)CNC2=O` (single isomer, unassigned) [Example 193B], the figure is 875 nM; as for `Cc1cncc(OC2CCN(c3nc4c(cc3C)C(=O)N(C)[C@@H]4CO)CC2)c1` [Example 343, (S)-7-(hydroxymethyl)-3,6-dimethyl-2-(4-((5-methylpyridin-3-yl)oxy)piperidin-1-yl)-6,7-dihydro-5H-pyrrolo[3,4-b]pyridin-5-one], 55 nM; as for `CCc1cc2c(nc1N1CCC(Oc3ccc4c(cnn4C)c3)CC1)[C@H](CO)N(C)C2=O` [Example 364, (R)-3-ethyl-7-(hydroxymethyl)-6-methyl-2-(4-((1-methyl-1H-indazol-5-yl)oxy)piperidin-1-yl)-6,7-dihydro-5H-pyrrolo[3,4-b]pyridin-5-one], 3770 nM. To `Cc1cc2c(nc1N1CCC(Oc3ccc4c(c3)CCCO4)CC1)CNC2=O` [Example 116, 2-(4-(chroman-6-yloxy)piperidin-1-yl)-3-methyl-6,7-dihydro-5H-pyrrolo[3,4-b]pyridin-5-one] belongs 45 nM; to `CCOCCOC1CCN(c2nc3c(cc2C)C(=O)NC3)CC1` [Example 54, 2-(4-(2-ethoxyethoxy)piper-idin-1-yl)-3-methyl-6,7-dihydro-5H-pyrrolo[3,4-b]pyridin-5-one], 8760 nM; to `CCc1cc2c(nc1N1CCC(Oc3ccc4c(c3)COC4)CC1)CNC2=O` [Example 213, 2-(4-((1,3-dihydro-2-benzofuran-5-yl)oxy)piperidin-1-yl)-3-ethyl-6,7-dihydro-5H-pyrrolo[3,4-b]pyridin-5-one], 61 nM. `Cc1cc2c(nc1N1CC[C@@H](OCC3(C)CC3)C(F)(F)C1)CNC2=O` [Example 171A, (R)-2-(3,3-difluoro-4-((1-methylcyclopropyl)meth-oxy)piperidin-1-yl)-3-methyl-6,7-dihydro-5H-pyrrolo[3,4-b]pyridin-5-one]: the EC50 was 491 nM.
